Results published in patent US6770597B2, “Benzohydrazide derivatives as herbicides and desiccant compositions containing them” (Ishihara Sangyo Kaisha, Ltd., priority 2002, dated 2004).

Key:
Type in all cases: in vivo
[1] = test system: lambsquarters (Chenopodium album, CHEAL); assay: Greenhouse herbicide screen, pre-emerge application, phytotoxicity rating; conditions: PRE emergent, 63 g ai/ha, 14 days after application, rating scale 0-100
From the text: (§1) A standard greenhouse herbicide activity screening system was used to evaluate the herbicidal efficacy and crop safety of these test compounds. Seven broadleaf weed species including redroot pigweed (Amaranthus retrofiexus, AMARE), velvetleaf (Abutilon theophrasti, ABUTH), sicklepod (Cassia obtusifolia, CASOB), ivyleaf morningglory (Ipomoea hederacea, IPOHE), lambsquarters (Chenopodium album, CHEAL), common ragweed (Ambrosia artemisiifolia L., AMBEL), and cocklebur (Xanthium strumarium, XANST) were used as test species. Four grass weed species including green foxtail (Setaria viridis, SETVI), barnyardgrass (Echinochloa crus-galli, ECHCG), johnsongrass (Sorghum halepense, SORHA), and large crabgrass (Digitaria sanguinalis, DIGSA) were also used. In addition, four crop species, field corn (Zea mays L., var. Dekalb 535, CORN), soybean (Glycine max L., var. Pella 86, SOY), upland rice (Oryza sp., var.Cocodrie, RICE) and wheat (Triticum aestivum L.) were included.
(§2) All plants were grown in 10 cm square plastic pots which were filled with a sandy loam soil mix. For pre-emerge tests, seeds were planted one day prior to application of the test compounds. For post-emerge tests, seeds were planted 8-21 days prior to the test to allow emergence and good foliage development prior to application of the test substances. At the time of the post-emerge application, plants of all species were usually at the 2-3 leaf stage of development.
(§3) All test compounds were dissolved in acetone and applied to the test units in a volume of 187 l/ha. Test materials were applied at rates ranging from 15 g ai/ha to 1000 g ai/ha using a track sprayer equipped with a TJ8001E even flow flat fan spray nozzle. Plants were arranged on a shelf so that the top of the canopy (post-emerge) or top of the soil surface (pre-emerge) was 40-45 cm below the nozzle. Pressurized air was used to force the test solution through the nozzle as it was mechanically advanced (via electrically driven chain drive) over the top of all test plants/pots. This application simulates a typical commercial field herbicide application.
(§4) Pre-emergence tests were top watered immediately after treatment to incorporate the test materials, then routinely top-watered for normal growth. Post-emerge test units were always bottom-watered.
(§5) At 14 days after application of the test materials, phytotoxicity ratings were recorded. A rating scale of 0-100 was used as previously described in Research Methods in Weed Science, 2nd edition, B. Truelove, Ed., Southern Weed Science Society, Auburn University, Auburn, Ala., 1977. Briefly, “0” corresponds to no damage and “100” corresponds to complete death of all plants in the test unit. This scale was used both to determine efficacy against weed species and damage to crop species. Herbicide activity data for various compounds of this invention, which are shown by compound No. in Tables 1-12, are shown in Tables 13 and 14.

[2] = test system: large crabgrass (Digitaria sanguinalis, DIGSA); assay: as above; conditions: PRE emergent, 63 g ai/ha, 14 days after application, rating scale 0-100
From the text: as §1, §2, §3, §4, §5

[3] = test system: green foxtail (Setaria viridis, SETVI); assay: as above; conditions: PRE emergent, 63 g ai/ha, 14 days after application, rating scale 0-100
From the text: as §1, §2, §3, §4, §5

[4] = test system: ivyleaf morningglory (Ipomoea hederacea, IPOHE); assay: as above; conditions: PRE emergent, 63 g ai/ha, 14 days after application, rating scale 0-100
From the text: as §1, §2, §3, §4, §5

[5] = test system: velvetleaf (Abutilon theophrasti, ABUTH); assay: as above; conditions: PRE emergent, 63 g ai/ha, 14 days after application, rating scale 0-100
From the text: as §1, §2, §3, §4, §5

[6] = test system: johnsongrass (Sorghum halepense, SORHA); assay: as above; conditions: PRE emergent, 63 g ai/ha, 14 days after application, rating scale 0-100
From the text: as §1, §2, §3, §4, §5

[7] = test system: barnyardgrass (Echinochloa crus-galli, ECHCG); assay: as above; conditions: PRE emergent, 63 g ai/ha, 14 days after application, rating scale 0-100
From the text: as §1, §2, §3, §4, §5

[8] = test system: common ragweed (Ambrosia artemisiifolia L., AMBEL); assay: as above; conditions: PRE emergent, 63 g ai/ha, 14 days after application, rating scale 0-100
From the text: as §1, §2, §3, §4, §5

[9] = test system: cocklebur (Xanthium strumarium, XANST); assay: as above; conditions: PRE emergent, 63 g ai/ha, 14 days after application, rating scale 0-100
From the text: as §1, §2, §3, §4, §5

[10] = test system: redroot pigweed (Amaranthus retrofiexus, AMARE); assay: as above; conditions: PRE emergent, 63 g ai/ha, 14 days after application, rating scale 0-100
From the text: as §1, §2, §3, §4, §5

[11] = test system: sicklepod (Cassia obtusifolia, CASOB); assay: as above; conditions: PRE emergent, 63 g ai/ha, 14 days after application, rating scale 0-100
From the text: as §1, §2, §3, §4, §5

[12] = test system: lambsquarters (Chenopodium album, CHEAL); assay: Greenhouse herbicide screen, post-emerge application, phytotoxicity rating; conditions: POST emergent, 63 g ai/ha, 14 days after application, scale 0-100
From the text: as §1, §2, §3, §4, §5

[13] = test system: large crabgrass (Digitaria sanguinalis, DIGSA); assay: as above; conditions: POST emergent, 63 g ai/ha, 14 days after application, scale 0-100
From the text: as §1, §2, §3, §4, §5

[14] = test system: green foxtail (Setaria viridis, SETVI); assay: as above; conditions: POST emergent, 63 g ai/ha, 14 days after application, scale 0-100
From the text: as §1, §2, §3, §4, §5

[15] = test system: ivyleaf morningglory (Ipomoea hederacea, IPOHE); assay: as above; conditions: POST emergent, 63 g ai/ha, 14 days after application, scale 0-100
From the text: as §1, §2, §3, §4, §5

[16] = test system: velvetleaf (Abutilon theophrasti, ABUTH); assay: as above; conditions: POST emergent, 63 g ai/ha, 14 days after application, scale 0-100
From the text: as §1, §2, §3, §4, §5

[17] = test system: johnsongrass (Sorghum halepense, SORHA); assay: as above; conditions: POST emergent, 63 g ai/ha, 14 days after application, scale 0-100
From the text: as §1, §2, §3, §4, §5

[18] = test system: barnyardgrass (Echinochloa crus-galli, ECHCG); assay: as above; conditions: POST emergent, 63 g ai/ha, 14 days after application, scale 0-100
From the text: as §1, §2, §3, §4, §5

[19] = test system: common ragweed (Ambrosia artemisiifolia L., AMBEL); assay: as above; conditions: POST emergent, 63 g ai/ha, 14 days after application, scale 0-100
From the text: as §1, §2, §3, §4, §5

[20] = test system: cocklebur (Xanthium strumarium, XANST); assay: as above; conditions: POST emergent, 63 g ai/ha, 14 days after application, scale 0-100
From the text: as §1, §2, §3, §4, §5

[21] = test system: redroot pigweed (Amaranthus retrofiexus, AMARE); assay: as above; conditions: POST emergent, 63 g ai/ha, 14 days after application, scale 0-100 (0 no damage, 100 complete death)
From the text: as §1, §2, §3, §4, §5

[22] = test system: sicklepod (Cassia obtusifolia, CASOB); assay: as above; conditions: POST emergent, 63 g ai/ha, 14 days after application, scale 0-100
From the text: as §1, §2, §3, §4, §5

`CC(=O)OC(=NN=C(C)C(C)(C)C)c1cc(-n2c(=O)cc(C(F)(F)F)n(C)c2=O)c(F)cc1Cl` [Compound 5-2, 2-chloro-5-(3,6-dihydro-3-methyl-2,6-dioxo-4-(trifluoromethyl)-1(2H)-pyrimidinyl)-4-fluoro-N-(1,2,2-trimethylpropylidene)-benzenecarbohydrazonic Acid, Acetyl Ester] was tested, and the “phytotoxicity rating CHEAL” value [1] was 100, the “phytotoxicity rating DIGSA” value [2] was 60 and the “phytotoxicity rating SETVI” value [3] was 70. For the same molecule, the “phytotoxicity rating IPOHE” value [4] was 95, the “phytotoxicity rating ABUTH” value [5] was 95 and the “phytotoxicity rating SORHA” value [6] was 70. The “phytotoxicity rating ECHCG” value [7] was 40, the “phytotoxicity rating AMBEL” value [8] was 60 and the “phytotoxicity rating XANST” value [9] was 0. The “phytotoxicity rating AMARE” value [10] was 100, the “phytotoxicity rating CASOB” value [11] was 55 and the “phytotoxicity rating CHEAL” value [12] was 100. The “phytotoxicity rating DIGSA” value [13] was 50, the “phytotoxicity rating SETVI” value [14] was 50 and the “phytotoxicity rating IPOHE” value [15] was 100. The “phytotoxicity rating ABUTH” value [16] was 100, the “phytotoxicity rating SORHA” value [17] was 55 and the “phytotoxicity rating ECHCO” value [18] was 95. For the same molecule, the “phytotoxicity rating AMBEL” value [19] was 90, the “phytotoxicity rating XANST” value [20] was 99 and the “phytotoxicity rating AMARE” value [21] was 95. The “phytotoxicity rating CASOB” value [22] was 55.
